From ChEMBL document CHEMBL1130615, “Synthesis, DNA-damaging and cytotoxic properties of novel topoisomerase II-directed bisantrene analogues” (Bioorg Med Chem Lett, 1998)

Experiments:
[1] = system: A2780; assay: Cell cytotoxicity was determined against human ovarian cancer (A2780) cell line; format: functional, cell-based
[2] = system: HL-60; assay: Cell cytotoxicity was determined against human promyelocytic leukemia (HL60) cell line; format: functional, cell-based
[3] = target: T1, DNA topoisomerase II (Homo sapiens) (UniProt P11388+Q02880); assay: Percent of DNA remaining uncut after incubation with Topoisomerase II at 10 uM concentration; format: protein assay
[4] = target: T1, DNA topoisomerase II (Homo sapiens); assay: Percent of DNA remaining uncut after incubation with Topoisomerase II at 0.1 uM concentration; format: protein assay
[5] = target: T1, DNA topoisomerase II (Homo sapiens); assay: Percent of DNA remaining uncut after incubation with Topoisomerase II at 1 uM concentration; format: protein assay

SMILES	IC50 [1] [µM]	IC50 [2] [µM]	Uncut DNA [3] [%]	Uncut DNA [4] [%]	Uncut DNA [5] [%]
C(=N\NC1=NCCN1)/c1cccc2cc3ccccc3cc12	18.6	23	20	56	48
C(=N\NC1=NCCN1)/c1ccc(/C=N/NC2=NCCN2)c2cc3ccccc3cc12	4.8	11.2	95	54	103
C(=N\NC1=NCCN1)/c1c2ccccc2cc2ccccc12	37.8	73.5	11	41	30
COc1cc(NS(C)(=O)=O)ccc1Nc1c2ccccc2nc2ccccc12 [AMSACRINE]	0.35	0.4	1	12	4
C(=N\NC1=NCCN1)/c1c2ccccc2c(/C=N/NC2=NCCN2)c2ccccc12 [BISANTRENE]	0.34	0.3	57	14	46
C(=N\NC1=NCCN1)/c1c2ccccc2nc2ccccc12	28.1	48.1	25	51	38
